Assays:
untransformed tissue = test: Visual selection with IFT as selectable agent; type: cell-based, soybean; details: FIG. 1; transformed material becomes green
Excerpt: FIG. 1: Visual selection with IFT as selectable agent.

untransformed cells = test: Selection with DKN as selectable agent in Shoot Induction medium, cotyledonary node method; type: cell-based, soybean; details: DKN 2 ppm in Shoot Induction medium
Method: The cotyledonary node method used for transforming soybean has been described by Zhang et al., 1999, Clemente et al. 2000, Xing et al. 2000.
After washing, the explants are placed (5 per plate) on the Shoot Initiation Medium, inclined at 45°, with the cotyledonary node area imbedded in the medium and upwards. The Shoot Initiation step lasts 1 month (24° C. 16/8 photoperiod) with a transfer after 15 days in which the hypocotyl is eliminated to keep only the differentiating area and the cotyledon.
1×B5 major salts, 1×B5 minor salts, 28 mg/L Ferrous, 38 mg/L NaEDTA, 30 g/L Sucrose, 0.59 g/L MES, and 7 g/L Noble agar (pH 5.7). Filter sterilized 1×B5 vitamins, BAP (1.11 mg/L), Timentin (50 mg/L), Cefotaxime (200 mg/L), Vancomycin (50 mg/L) and the selection agent are added to this medium after autoclaving.
Transgenic events (cv Thorne) were generated for construct carrying hppd gene alone (e.i. pFCO117) or in combination with pdh gene (e.i. pFCO48), using DKN as selection agent, as described in example 1. Selection agent DKN (diketonitrile) was added in SI (Shoot Induction medium) at a final concentration of 2 ppm and for about 4 week. When explants were transferred to SE (Shoot Elongation medium), selection was removed. […] Visual selectable marker dramatically decreases selection time, as untransformed material can be identified and eliminated in as little as 4 weeks after transformation.

[1] = about 4 weeks, cv Thorne, in vitro

SMILES	phenotype of untransformed tissue (untransformed tissue)	effect on chlorophyll synthesis (untransformed cells; [1])	lethality for untransformed cells (untransformed cells; [1])	phenotype of untransformed tissue (untransformed cells; transformed material becomes green)
CS(=O)(=O)c1cc(C(F)(F)F)ccc1C(=O)c1cnoc1C1CC1 [IFT, (5-cyclopropyl-4-isoxazolyl)[2-(methylsulfonyl)-4-(trifluoromethyl)phenyl]methanone]	white, elongated shoots			
CS(=O)(=O)c1cc(C(F)(F)F)ccc1C(=O)C(C#N)C(=O)C1CC1 (stereo not shown) [DKN, 2-cyano-3-cyclopropyl-1-(2-methylsulphonyl-4-trifluoromethylphenyl)-propane-1,3-dione]		prevents chlorophyll synthesis	does not kill untransformed cells	white, elongated shoots

Source: patent US20160130592A1, “Soybean Transformation Using HPPD Inhibitors as Selection Agents” (Bayer CropScience AG, priority 2010, published 2016)
